Experimental data from ChEMBL document CHEMBL5046282, “Discovery of Brain-Penetrant Glucosylceramide Synthase Inhibitors with a Novel Pharmacophore” (J Med Chem, 2022).
Active and inactive are the calls of the source. The calls are words filed in the database; no cut-off is given here.

How the values were obtained:
[1] = 1-Octanol/aqueous buffer partition coefficient, logD of the compound at pH 7.4 by chromatographic method; type: physicochemical
[2] = Plasma clearance in non-fasted ICR mouse at 0.5 mg/kg, iv by LC-MS/MS analysis; type: ADME, organism-based
[3] = MRT in non-fasted ICR mouse at 5 mg/kg, po by LC-MS/MS analysis; type: ADME, organism-based; details: in vivo
[4] = MRT in non-fasted ICR mouse at 0.5 mg/kg, iv by LC-MS/MS analysis; type: ADME, organism-based; details: in vivo
[5] = Cmax in non-fasted ICR mouse at 5 mg/kg, po by LC-MS/MS analysis; type: ADME, organism-based; design: route oral, dose 5 mg/kg; details: in vivo
Mus musculus = experiment: In vivo inhibition of GCS activity in po dosed C57BL/6J mouse assessed as reduction in GlcCer level in plasma measured after 6 hrs; type: functional, organism-based; details: dose 30-300 mg/kg
[6] = Cardiotoxicity in human iPSC-derived cardiomyocytes assessed as minimum effective concentration required for intracellular calcium transients-mediated proarrhythmic activity by Fluo-4 dye based fluorescence analysis; type: toxicity; details: cardiac muscle cell
[7] = molecular target: T1, Ceramide glucosyltransferase (Homo sapiens) (UniProt Q16739); experiment: Non-competitive inhibition of GCS (unknown origin) using 1 to 70 uM C8-ceramide and 0.1 to 200 uM UDP-glucose as substrate incubated for 1 hr by RapidFire mass spectrometry
T1 sequence (whole entry): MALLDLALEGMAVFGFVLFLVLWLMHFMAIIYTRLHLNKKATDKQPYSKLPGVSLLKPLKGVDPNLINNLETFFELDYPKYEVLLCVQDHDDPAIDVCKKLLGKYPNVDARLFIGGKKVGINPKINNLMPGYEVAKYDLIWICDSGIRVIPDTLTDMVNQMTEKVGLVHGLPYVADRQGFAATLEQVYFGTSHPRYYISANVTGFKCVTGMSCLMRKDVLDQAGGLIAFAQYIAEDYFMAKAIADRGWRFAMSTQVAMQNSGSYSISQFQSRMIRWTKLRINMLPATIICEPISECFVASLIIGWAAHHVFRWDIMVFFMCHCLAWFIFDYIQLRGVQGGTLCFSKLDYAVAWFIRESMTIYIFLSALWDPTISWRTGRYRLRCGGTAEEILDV

[8] = AUC in non-fasted ICR mouse at 5 mg/kg, po by LC-MS/MS analysis; type: ADME, organism-based; design: dose 5 mg/kg; details: in vivo
[9] = Intrinsic clearance in mouse liver microsomes at 1 uM in presence of NADPH generating system assessed per mg protein by LC-MS/MS analysis; type: ADME, Microsome; details: read-out: CLH
CYP1A2 = molecular target: T2, CYP1A2 (Homo sapiens, UniProt P05177); experiment: Inhibition of CYP1A2 in human liver microsomes using tacrine as substrate at 10 uM in presence of NADPH generating system incubated for 10 mins; type: ADME; details: probe tacrine
T2 sequence (P05177 whole entry): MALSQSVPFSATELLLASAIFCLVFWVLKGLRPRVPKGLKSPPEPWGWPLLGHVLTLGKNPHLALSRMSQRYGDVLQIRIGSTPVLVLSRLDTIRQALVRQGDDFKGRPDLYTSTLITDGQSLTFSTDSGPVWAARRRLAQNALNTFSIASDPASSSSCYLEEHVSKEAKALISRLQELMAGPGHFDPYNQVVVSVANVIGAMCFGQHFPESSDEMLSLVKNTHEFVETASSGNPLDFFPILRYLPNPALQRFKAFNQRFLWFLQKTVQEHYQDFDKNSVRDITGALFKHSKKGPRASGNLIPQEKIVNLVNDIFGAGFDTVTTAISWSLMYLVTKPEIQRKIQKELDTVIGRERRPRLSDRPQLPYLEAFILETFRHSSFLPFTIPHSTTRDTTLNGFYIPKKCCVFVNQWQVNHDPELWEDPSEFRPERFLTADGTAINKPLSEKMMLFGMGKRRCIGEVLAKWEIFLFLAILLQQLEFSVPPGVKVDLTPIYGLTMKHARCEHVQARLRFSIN

[10] = Volume of distribution at steady state in non-fasted ICR mouse at 0.5 mg/kg, iv by LC-MS/MS analysis; type: ADME, organism-based; details: in vivo, read-out: Vdss
[11] = molecular target: T3, Ceramide glucosyltransferase (Homo sapiens, UniProt Q16739); experiment: Inhibition of human GCS using C8-ceramide and UDP-glucose as substrate incubated for 1 hr by RapidFire mass spectrometry
T3 sequence (Q16739 whole entry): T1 sequence (whole entry)

Nav1.5 = Nav1.5 (Homo sapiens, UniProt Q14524); experiment: Inhibition of human Nav1.5 at 30 uM by automated whole cell patch clamp assay; type: toxicity
[12] = Selectivity index, ratio of IC50 for mouse GCS to IC50 for human GCS
CYP2C9 = CYP2C9 (Homo sapiens, UniProt P11712); experiment: Inhibition of CYP2C9 in human liver microsomes using tolbutamide as substrate at 10 uM in presence of NADPH generating system incubated for 10 mins; type: ADME; details: probe tolbutamide
[13] = molecular target: Sodium-dependent serotonin transporter (Homo sapiens, UniProt P31645); experiment: Inhibition of human SERT; type: toxicity
Chain of Sodium-dependent serotonin transporter (P31645 whole entry): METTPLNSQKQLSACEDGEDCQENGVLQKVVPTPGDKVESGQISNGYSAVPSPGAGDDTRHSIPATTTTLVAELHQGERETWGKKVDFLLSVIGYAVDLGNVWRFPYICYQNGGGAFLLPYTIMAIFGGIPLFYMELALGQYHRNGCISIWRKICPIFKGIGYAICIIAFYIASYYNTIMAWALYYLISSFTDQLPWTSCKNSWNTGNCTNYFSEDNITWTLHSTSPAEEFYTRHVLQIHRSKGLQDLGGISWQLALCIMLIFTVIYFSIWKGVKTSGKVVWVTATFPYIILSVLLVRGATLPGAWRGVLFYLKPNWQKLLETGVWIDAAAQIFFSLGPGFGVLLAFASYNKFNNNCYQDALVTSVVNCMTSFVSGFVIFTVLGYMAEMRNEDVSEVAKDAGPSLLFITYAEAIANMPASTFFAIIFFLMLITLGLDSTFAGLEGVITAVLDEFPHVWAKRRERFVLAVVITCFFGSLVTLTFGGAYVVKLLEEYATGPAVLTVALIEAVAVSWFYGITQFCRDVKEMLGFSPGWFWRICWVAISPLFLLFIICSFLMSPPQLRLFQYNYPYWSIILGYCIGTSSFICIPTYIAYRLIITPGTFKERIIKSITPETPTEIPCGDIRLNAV

Chain of CYP2C9 (P11712 whole entry): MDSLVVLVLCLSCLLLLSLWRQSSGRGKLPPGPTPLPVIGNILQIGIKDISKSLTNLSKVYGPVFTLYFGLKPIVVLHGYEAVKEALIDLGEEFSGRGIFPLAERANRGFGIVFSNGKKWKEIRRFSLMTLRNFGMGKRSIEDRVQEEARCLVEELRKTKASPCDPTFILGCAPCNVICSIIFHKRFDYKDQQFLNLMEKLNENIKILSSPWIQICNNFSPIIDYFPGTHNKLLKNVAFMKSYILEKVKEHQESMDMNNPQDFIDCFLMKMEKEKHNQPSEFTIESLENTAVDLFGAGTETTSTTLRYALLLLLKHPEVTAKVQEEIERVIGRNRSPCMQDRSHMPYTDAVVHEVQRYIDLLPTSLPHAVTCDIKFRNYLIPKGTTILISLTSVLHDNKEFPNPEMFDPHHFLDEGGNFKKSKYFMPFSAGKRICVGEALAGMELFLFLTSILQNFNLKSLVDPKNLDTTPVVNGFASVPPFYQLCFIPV
Chain of Nav1.5 (Q14524 whole entry): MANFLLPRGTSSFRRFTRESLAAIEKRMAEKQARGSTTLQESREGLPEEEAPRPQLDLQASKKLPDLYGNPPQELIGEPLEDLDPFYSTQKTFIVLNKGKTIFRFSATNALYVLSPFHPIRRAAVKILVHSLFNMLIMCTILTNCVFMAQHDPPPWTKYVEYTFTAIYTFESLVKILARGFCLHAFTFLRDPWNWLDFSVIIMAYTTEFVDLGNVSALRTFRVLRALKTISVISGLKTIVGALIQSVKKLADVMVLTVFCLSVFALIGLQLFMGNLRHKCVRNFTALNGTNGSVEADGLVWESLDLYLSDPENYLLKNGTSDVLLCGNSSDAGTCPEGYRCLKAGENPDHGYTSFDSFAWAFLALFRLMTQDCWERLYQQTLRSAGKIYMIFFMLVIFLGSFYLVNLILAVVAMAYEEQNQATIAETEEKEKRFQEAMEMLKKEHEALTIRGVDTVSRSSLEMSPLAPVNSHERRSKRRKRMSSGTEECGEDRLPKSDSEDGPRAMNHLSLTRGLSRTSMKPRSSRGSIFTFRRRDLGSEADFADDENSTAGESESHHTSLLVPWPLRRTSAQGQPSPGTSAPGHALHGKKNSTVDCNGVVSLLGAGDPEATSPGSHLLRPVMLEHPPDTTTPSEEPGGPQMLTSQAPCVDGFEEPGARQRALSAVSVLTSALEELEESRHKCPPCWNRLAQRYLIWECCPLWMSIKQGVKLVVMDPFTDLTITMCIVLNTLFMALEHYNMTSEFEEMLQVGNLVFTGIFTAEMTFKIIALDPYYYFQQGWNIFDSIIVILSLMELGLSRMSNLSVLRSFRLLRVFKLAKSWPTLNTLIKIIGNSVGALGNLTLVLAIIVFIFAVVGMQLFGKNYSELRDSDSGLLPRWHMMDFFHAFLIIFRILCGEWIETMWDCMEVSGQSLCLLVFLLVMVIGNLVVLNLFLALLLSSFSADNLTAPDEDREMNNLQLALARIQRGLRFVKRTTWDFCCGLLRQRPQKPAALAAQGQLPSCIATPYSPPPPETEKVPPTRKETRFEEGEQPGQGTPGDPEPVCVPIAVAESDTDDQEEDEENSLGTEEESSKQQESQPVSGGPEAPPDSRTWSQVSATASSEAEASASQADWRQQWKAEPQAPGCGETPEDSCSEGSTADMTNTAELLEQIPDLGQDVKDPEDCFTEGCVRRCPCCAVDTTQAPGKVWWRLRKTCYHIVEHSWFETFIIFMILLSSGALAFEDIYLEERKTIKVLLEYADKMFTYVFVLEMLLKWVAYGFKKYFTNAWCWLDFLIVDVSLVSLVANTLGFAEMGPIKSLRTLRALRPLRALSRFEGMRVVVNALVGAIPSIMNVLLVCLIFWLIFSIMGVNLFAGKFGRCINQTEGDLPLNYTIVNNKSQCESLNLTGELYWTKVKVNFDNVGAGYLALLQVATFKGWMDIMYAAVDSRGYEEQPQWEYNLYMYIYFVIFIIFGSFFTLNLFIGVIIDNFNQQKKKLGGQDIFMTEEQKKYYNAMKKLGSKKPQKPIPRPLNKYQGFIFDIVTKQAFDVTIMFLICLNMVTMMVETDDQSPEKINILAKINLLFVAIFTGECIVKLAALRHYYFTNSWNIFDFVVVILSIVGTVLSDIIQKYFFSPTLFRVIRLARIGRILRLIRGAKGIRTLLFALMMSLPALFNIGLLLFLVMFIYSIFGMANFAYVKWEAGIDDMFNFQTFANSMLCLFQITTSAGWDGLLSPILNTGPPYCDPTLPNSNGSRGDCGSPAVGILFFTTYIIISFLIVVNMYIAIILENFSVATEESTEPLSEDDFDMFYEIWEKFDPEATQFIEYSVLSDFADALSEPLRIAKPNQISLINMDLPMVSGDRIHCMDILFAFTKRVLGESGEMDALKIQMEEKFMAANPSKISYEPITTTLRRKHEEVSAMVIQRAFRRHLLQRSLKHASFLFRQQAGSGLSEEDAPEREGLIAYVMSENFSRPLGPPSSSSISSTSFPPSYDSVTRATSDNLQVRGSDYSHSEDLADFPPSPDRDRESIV

CC(C)(O)c1ccc(NC(=O)c2ccnn(-c3ccccc3OCC(F)(F)F)c2=O)cc1
chromatographic logD [1]: 2.42
clearance [2]: 33.7 mL/min/kg
MRT [3]: 1.91 h
MRT [4]: 1.03 h
Cmax [5]: 416 ng/mL
inhibition (Mus musculus): Dose-Dependent Effect
MEC [6]: > 10 µM
inhibition [7]: Active
AUC [8]: 829 ng·h/mL
microsomal CLint at 1 µM [9]: 1 µL/min/mg
inhibition at 10 min, 10 µM (CYP1A2): 9.3%
Vd [10]: 1.97 L/kg
IC50 [11]: 15 nM
inhibition at 30 µM (Nav1.5): 20%
Ratio IC50 [12]: 12.7
inhibition at 10 min, 10 µM (CYP2C9): 24.9%
IC50 [13]: > 10000 nM
